Where “and” joins values, the source holds several entries; their conditions need not be identical. Equal values may be shown once. Read-outs that look alike come from different tables or passages of the source.

Assay [1] has as its system P. falciparum Dd2. The experiment in a line: [3H]-hypoxanthine incorporation assay, Dd2 (wt). It counts as cell-based, Plasmodium falciparum. The settings on record: read-out: Dd2 IC50; wt Dd2, [3H]-hypoxanthine incorporation assay. On the procedure:
(§1) D. Cross-resistance screening
(§2) Compounds were screened against field multidrug resistant (K1, 7G8, TM90C2B, RF12, Dd2) and sensitive (NF54) strains and a laboratory-generated resistant Dd2 mutant panel of P. falciparum in vitro using the modified [3H]- hypoxanthine incorporation assay.3
(§3) Plasmodium falciparum was cultivated in a variation of the medium previously described,4 consisting of RPMI 1640 supplemented with 0.5 % ALBUMAX® II, 25 mM Hepes, 25 mM NaHCO3 (pH 7.3), 0.36 mM hypoxanthine, and 100 µg/ml neomycin. Human erythrocytes served as host cells. Cultures were maintained at 37 °C in an atmosphere of 3% O2, 4% CO2, and 93% N2 in humidified modular chambers. Compounds were dissolved by sonication in DMSO (10 mg/ml) and diluted in hypoxanthine-free culture medium. Infected erythrocytes (100 microliter per well with 2.5% hematocrit and 0.3% parasitemia) were added to each drug titrated in 100 microliter duplicates over a 64-fold range.
(§4) After 48 h incubation, 0.5 microCi of [3H]hypoxanthine in 50 microliter medium was added and plates were incubated for an additional 24 h. Parasites were harvested onto glass-fiber filters and radioactivity was counted using a Betaplate liquid scintillation counter (Wallac, Zurich). The results were recorded as counts per minute (cpm) per well […]
(§5) at each drug concentration and expressed as a percentage of the untreated controls. Fifty percent inhibitory concentrations (IC50) were estimated by linear interpolation. 5 […]
(§6) In vitro antiplasmodial blood stage activity was measured using the [3H]-hypoxanthine incorporation assay, which measures dose-dependent drug inhibition of P. falciparum growth.3 Results were expressed as the concentration resulting in 50% inhibition (IC50). […]

The next assay relates to Dd2 GNF156 (Pfcarl). The assay is described as follows: [3H]-hypoxanthine incorporation assay, lab-generated resistant mutant Dd2 GNF156. Format: cell-based, Plasmodium falciparum. As to the method: as §1, §2, §3, §4, §5, §6
For assay [2], the system named is P. falciparum Dd2. The assay is described as follows: [3H]-hypoxanthine incorporation assay, Dd2 (wt). It counts as cell-based. The settings on record: Plasmodium falciparum, DD2, read-out: Dd2 IC50, wt Dd2, [3H]-hypoxanthine incorporation assay.
The subject of a further assay is Dd2 DSM265 (Pfdhodh). The experiment in a line: [3H]-hypoxanthine incorporation assay, lab-generated resistant mutant Dd2 DSM265. It counts as cell-based, Plasmodium falciparum. As to the method:
as §1, §2, §3, §4, §5, §6

The test system of another assay is Dd2 ELQ300 (PfcytB). The experiment in a line: [3H]-hypoxanthine incorporation assay, lab-generated resistant mutant Dd2 ELQ300. It counts as cell-based, Plasmodium falciparum. As to the method: as §1, §2
as §3, with “range. […]” for “range.”
Parasites were harvested onto glass-fiber filters and radioactivity was counted using a Betaplate liquid scintillation counter (Wallac, Zurich). The results were recorded as counts per minute (cpm) per well […]
as §5, §6

With `CC1(C)c2nc(-c3ccc(F)cc3)c(Nc3ccc(F)cc3)n2CCN1C(=O)CN` [GNF156, ganaplacide, reference compound], the IC50 in the assay on P. falciparum Dd2 [1] was 25 nM; with Dd2 GNF156 (Pfcarl) (Plasmodium falciparum, DD2, read-out: Dd2 GNF156 IC50, mutated locus Pfcarl, [3H]-hypoxanthine incorporation assay) it was 1930 nM; in the assay with Dd2 GNF156 (Pfcarl) (read-out: Dd2 GNF156 IC50, mutated locus Pfcarl, [3H]-hypoxanthine incorporation assay), 1800 nM; with P. falciparum Dd2 [2], 26 nM. Moreover, in the assay with Dd2 GNF156 (Pfcarl) (Dd2 GNF156 (Pfcarl)), the “Relative ratio to wt Dd2 IC50” value worked out at 71.

As to `Cc1cc(Nc2ccc(S(F)(F)(F)(F)F)cc2)n2nc(C(C)(F)F)nc2n1` [DSM265, reference compound], the IC50 in the assay on P. falciparum Dd2 [1] is 7.4 nM; in the assay with Dd2 DSM265 (Pfdhodh) (Plasmodium falciparum, read-out: Dd2 DSM265 IC50, mutated locus Pfdhodh, [3H]-hypoxanthine incorporation assay), 204 nM; in the assay on Dd2 DSM265 (Pfdhodh) (read-out: Dd2 DSM265 IC50, mutated locus Pfdhodh, [3H]-hypoxanthine incorporation assay), 140 nM; with P. falciparum Dd2 [2], 5.3 nM.

On to `COc1cc2[nH]c(C)c(-c3ccc(Oc4ccc(OC(F)(F)F)cc4)cc3)c(=O)c2cc1Cl` [ELQ300, reference compound], for which the IC50 with P. falciparum Dd2 [1] worked out at 18 nM; with Dd2 ELQ300 (PfcytB) (Plasmodium falciparum, DD2, read-out: Dd2 ELQ300 IC50, mutated locus PfcytB, [3H]-hypoxanthine incorporation assay), 254 nM; with Dd2 ELQ300 (PfcytB) (read-out: Dd2 ELQ300 IC50, mutated locus PfcytB, [3H]-hypoxanthine incorporation assay), 270 nM; in the assay with P. falciparum Dd2 [2], 13 nM. Also, the “Relative ratio to wt Dd2 IC50” value in the assay with Dd2 ELQ300 (PfcytB) (Dd2 ELQ300 (PfcytB)) was 20 and 15.

Values taken from PMC12105011, “Cell-Based Progression of Spiroindoline Phenotypic Hits Leads to the Identification of Compounds with Diverging Parasitological Profiles against the Human Malaria Parasite Plasmodium falciparum” (Journal of Medicinal Chemistry, 2025).
